Values of other authors, collected in patent publication US20030060423A1, “Co-therapy for the treatment of dementia and associated behavioral manifestations comprising anticonvulsant derivatives and acetylcholinesterase inhibitors” (priority 2001, published 2003).

Key:
[1] = test system: nicotinic receptors
[2] = test system: behavioral and psychiatric symptoms of AD; settings: in vivo
[3] = test system: simple and complex partial seizures and secondarily generalized seizures; settings: clinical trials, adjunctive therapy or monotherapy
[4] = test system: attention, cognition; settings: some individuals
[5] = test system: kindled epilepsy; settings: animal model of kindled epilepsy
[6] = test system: neuronal damage following global ischemia; settings: gerbils
[7] = test system: focal ischemia; settings: used 2 hours after MCA embolization, rat
[8] = test system: seizures; settings: several rodent models of epilepsy

Structure (SMILES): COc1ccc2c3c1O[C@H]1C[C@@H](O)C=C[C@@]31CCN(C)C2 [galantamine, (4aS,6R,8aS)-4a,5,9,10,11,12-hexahydro-3-methoxy-11-methyl-6H-benzofuro[3a,3,2-ef][2]benzazepin-6-ol]
- modulation of nicotinic receptors [1]: allosteric modulation of nicotinic receptors
- benefit on behavioral and psychiatric symptoms of AD [2]: benefits on the behavioral and psychiatric symptoms of AD

Structure (SMILES): CC1(C)O[C@@H]2[C@@H](CO[C@@]3(COS(N)(=O)=O)OC(C)(C)O[C@@H]23)O1 [topiramate, 2,3:4,5-bis-O-(1-methylethylidene)-β-D-fructopyranose sulfamate]
- efficacy in treating simple and complex partial seizures and secondarily generalized seizures [3]: effective as adjunctive therapy or as monotherapy
- effect on attention [4]: may impair attention
- block of seizures [5]: effectively block seizures
- neuroprotective effect against neuronal damage [6]: neuroprotective effect
- neuroprotective effect [7]: dose- and use-dependent neuroprotective effect
- block of seizures [8]: effectively block seizures
